Measurements published in patent publication US20120190707A1, “SELECTIVE INHIBITORS OF AKT AND METHODS OF USING SAME” (priority 2008, published 2012).
“Also recorded” adds a separate entry of the source.

Tests used:
Akt1 = Akt1 (Homo sapiens, UniProt P31749); experiment: Akt1 inhibition assay using GSK-3 as a substrate (immuno-blotting with anti-phospho-GSK-3α/β); format: biochemical
Method: Here the top 4000 compounds out of 50000 docked compounds were selected using FlexX and Drugscore (BioSolvIT). The top 4000 docked structures were further evaluated and ranked according to Goldscore and Chemscore functions (CSCORE). A list of common 200 compounds was then selected among ranked top 700 compounds according to both scoring functions (FIG. 1B). […] The remaining 100 compounds were experimentally tested up to 30 μM against Akt1. The inhibitory activity was evaluated for the selected compounds by using Z'-LYTE™ kit assay provided by Invitrogen Corporation (19). […] Corning® 384-well low volume plates (20 μl) were used. The fluorescent-enzymatic assay has been performed following the protocol provided by Invitrogen Corporation, using a fluorescent plate reader (Victor2, Perkin-Elmer). […] C) Lineweaver-Burk Km and Km(app) evaluation for Akt1. Each measurement was performed in triplicate. […] The Ki and the Km(app) were calculated at fixed inhibitor concentrations, as reported in the text. All constant values were definitely evaluated by fitting the data to the Lineweaver-Burk plot; D) Akt1 inhibition assay using GSK-3 as a substrate. Comparison of compounds 1 and 2 (Table 1) with H89 at 10 μM. E) Dose response for compound 1. […]

AKT = experiment: pAKT473 and total AKT by western analysis in UACC 903 (PTEN-) cells; format: cell-based, human
Method: FIG. 6 describes the effect of BI-69A11 on phosphorylation and total levels of AKT in UACC 903 (PTEN−) cells. (A) UACC903 and the modified clone 29-1 (PTEN+) cells were exposed to 10 micro.M BI-69A11 and 50 micro.M LY294002 (a PI3K inhibitor) and the levels of pAKT473 and total AKT determined by western analysis. […] (SF=Serum Free). (B) BI-69A11 inhibits PRAS40 phosphorylation. UACC903 melanoma cells or 29-1 cells (PTEN+) were subjected to treatment with IGF-1 (20 ng/mL) and the level of PRAS40 phosphorylation was assessed. […] The cells were collected, lysed and levels of pPRAS40 and total PRAS40 determined by western analysis. (C) AKT association with HSP90 is inhibited by BI-69A11. Human melanoma cells were treated with BI-69A11 (10.micro.M) or DMSO control for 4 h, followed by protein preparation and immunoprecipitation using antibodies to pan-AKT. MG132 treatment, when used, initiated 1 h prior to treatment and lasted up to the preparation of proteins (total of 5 h). The right panel depicts analysis of total lysates.
The term “cell lines”, as used herein, unless otherwise indicated, refer to UACC 903 cells and 29-1 cells. The cells were cultured in DMEM, supplemented with 10% FBS and maintained at 37° C. in 5% CO2. Cells were plated to 75% confluency and grown overnight at 37° C. Plates were rinsed twice with a serum-free DMEM medium and the appropriate concentration of the compound was added to the plates. Cells were harvested at different timepoints by scraping (for western blotting) or trypsinization (for cell proliferation assay) where appropriate.
Thus, we set to test the possibility that BI-69A11's ability to inhibit AKT activity may stem from inhibition of AKT protein expression (see data below). We thus assessed whether inhibition of AKT Ser473 phosphorylation coincides with its activity, namely the phosphorylation of known AKT substrates. […] Of note, AKT3, the primarily active isoform of AKT in melanoma cells, effectively phosphorylates PRAS40 (Madhunapantula et al., 2007). […]

AKT transcripts = experiment: QPCR analysis of AKT transcripts in melanoma cells; format: cell-based; conditions: data not shown
Description: Given the effect of BI-69A11 on the level of AKT protein, we assessed the possible mechanisms underlying such an effect. First, we assessed whether BI-69A11 affects the level of AKT transcripts. RNA prepared from the melanoma cells, with and without treatment with BI-69A11, was subjected to QPCR analysis.

MeWo melanoma cells = experiment: Cell death by trypan blue staining, MeWo; format: cell-based
Method: (A) MeWo melanoma cells growing in 60 mm plates were treated with the indicated concentration of the inhibitor for 4 h before proteins were prepared for western blot analysis using the indicated antibodies. Level of beta.actin was monitored as a control for protein loading. (B) Experiment was performed as indicated in panel A, except that cells were harvested after 24 h for analysis of cell death using trypan blue staining. (C) Melanoma (MeWo), prostate cancer (PC3) and breast cancer (MCF7) cells were treated with BI-69A11 at the indicated concentrations; levels of AKT phosphorylation or expression were assessed 4 h later. The level of beta.actin used as a control for protein loading. (D) Experiment was performed as indicated in panel C, except that cells were harvested after 4 h for analysis of cell death using trypan blue staining.
To evaluate the effectiveness of BI-69A11 on melanoma cells we assessed the effect of different concentrations on AKT phosphorylation in MeWO cells.
For the proliferation assays, cells were treated as described above. However, instead of scraping cells into the serum-free medium, floating cells were collected in a 15 mL centrifuge tube whereas adherent cells trypsinized gently. The total cell population was pooled and counted on a hemocytometer after staining with Trypan Blue.

Sequence of Akt1 (P31749 whole entry): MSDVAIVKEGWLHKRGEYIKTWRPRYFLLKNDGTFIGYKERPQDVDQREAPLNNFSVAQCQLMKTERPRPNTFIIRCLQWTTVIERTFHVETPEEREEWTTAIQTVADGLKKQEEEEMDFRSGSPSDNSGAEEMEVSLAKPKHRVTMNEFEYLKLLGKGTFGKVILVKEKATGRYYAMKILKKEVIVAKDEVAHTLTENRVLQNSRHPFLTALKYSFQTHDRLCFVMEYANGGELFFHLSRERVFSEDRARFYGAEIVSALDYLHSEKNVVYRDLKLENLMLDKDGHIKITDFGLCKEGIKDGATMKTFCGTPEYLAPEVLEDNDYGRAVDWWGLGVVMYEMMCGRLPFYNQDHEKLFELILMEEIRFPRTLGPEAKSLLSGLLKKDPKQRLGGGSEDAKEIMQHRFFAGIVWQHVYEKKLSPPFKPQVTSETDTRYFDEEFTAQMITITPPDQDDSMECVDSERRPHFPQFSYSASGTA

Question: For `O=C(/C=C/c1nc2ccccc2[nH]1)c1c(O)nc2ccc(Cl)cc2c1-c1ccccc1` [Compound 2, (E)-3-(3-(1H-benzo[d]imidazol-2-yl)acryloyl)-6-chloro-4-phenylquinolin-2(1H)-one], which “inhibition of GSK-3 phosphorylation” value (Akt1) is on record?
Answer: low micromolar range

Question: And the “levels of pAKT473” value (AKT; 10 micro.M, UACC903 and 29-1 cells, FIG. 6A)?
Answer: Reduced levels of pAKT473

Question: What about the “levels of total AKT” value (AKT; 903 cells, 10 micro.M, increasing time after treatment) of the same compound?
Answer: reduced levels of total AKT

Question: And the “levels of pAKT Ser473 / AKT phosphorylation” value (AKT; UACC 903 cells, listed as BI-69A11)?
Answer: dose-dependent decrease; also recorded: effectively blocked

Question: What about the “level of AKT transcripts” value (AKT transcripts) of the same compound?
Answer: did not identify differences

Question: And the cell death (MeWo melanoma cells; 3 micro.M, within 24 hours)?
Answer: about 60%

Question: And the cell death (MeWo melanoma cells; 5 micro.M, within 4 hours)?
Answer: about 25%
